Columns and labels:
[1] = target: Histone deacetylase 2 (Homo sapiens) (UniProt Q92769); conditions: at 20 µM;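 further: recombinant enzyme activity measured with the fluorogenic acetylated lysine substrate Boc-Lys(Ac)-AMC, read on a microplate reader after 30–60 min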
Description: Inhibition of human recombinant HDAC2 at 20 uM using Boc-Lys(Ac)-AMC as substrate after 30 to 60 mins by microplate reader assay

[2] = target: Histone deacetylase 3 (Homo sapiens) (UniProt O15379); conditions: at 20 µM;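 further: recombinant enzyme assay with Boc-Lys(Ac)-AMC substrate, fluorescence read on a microplate reader after 30–60 min incubation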
Description: Inhibition of human recombinant HDAC3 at 20 uM using Boc-Lys(Ac)-AMC as substrate after 30 to 60 mins by microplate reader assay

[3] = Cytotoxicity against human MV411 cells assessed as growth inhibition after 24 hrs by MTS assay; format: functional, cell-based, MV4-11
[4] = target: T1, Histone deacetylase (Homo sapiens) (UniProt Q13547+O15379+Q9UBN7+Q92769+Q9UQL6+Q8WUI4+Q9BY41+Q96DB2+P56524+Q9UKV0+Q969S8); assay: Inhibition of HDAC in human MV411 cells assessed as up regulation of p21 WAF1/CIP1 expression after 4 hrs by western blot analysis; format: cell-based; conditions: MV4-11
[5] = Lipophilicity, LogP of the compound; format: physicochemical; conditions: octanol/water
[6] = target: T1, Histone deacetylase (Homo sapiens); assay: Inhibition of HDAC in human MV411 cells assessed as increase in H3K9 aceylation after 4 hrs by western blot analysis; format: cell-based; conditions: MV4-11
[7] = Binding affinity to Zn2+ assessed as Zn2+/compound complex formation by ITC analysis
[8] = Homo sapiens, MV4-11, 24 h, read-out: IC50

Sequence of Histone deacetylase 2 (Homo sapiens) (Q92769 whole entry): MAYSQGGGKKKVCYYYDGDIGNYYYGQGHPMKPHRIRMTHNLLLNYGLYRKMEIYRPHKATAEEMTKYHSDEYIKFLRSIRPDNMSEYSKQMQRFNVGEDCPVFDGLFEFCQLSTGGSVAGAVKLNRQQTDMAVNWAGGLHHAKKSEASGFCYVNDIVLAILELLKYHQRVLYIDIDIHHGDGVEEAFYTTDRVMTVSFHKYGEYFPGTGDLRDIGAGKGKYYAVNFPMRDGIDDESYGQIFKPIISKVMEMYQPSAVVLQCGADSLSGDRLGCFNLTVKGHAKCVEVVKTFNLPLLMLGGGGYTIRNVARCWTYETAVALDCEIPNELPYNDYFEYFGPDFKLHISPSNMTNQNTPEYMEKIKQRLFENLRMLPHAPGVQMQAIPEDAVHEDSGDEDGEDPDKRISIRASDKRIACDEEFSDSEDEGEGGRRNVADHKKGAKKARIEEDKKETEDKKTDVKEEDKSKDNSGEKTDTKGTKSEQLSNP
Sequence of Histone deacetylase 3 (Homo sapiens) (O15379 whole entry): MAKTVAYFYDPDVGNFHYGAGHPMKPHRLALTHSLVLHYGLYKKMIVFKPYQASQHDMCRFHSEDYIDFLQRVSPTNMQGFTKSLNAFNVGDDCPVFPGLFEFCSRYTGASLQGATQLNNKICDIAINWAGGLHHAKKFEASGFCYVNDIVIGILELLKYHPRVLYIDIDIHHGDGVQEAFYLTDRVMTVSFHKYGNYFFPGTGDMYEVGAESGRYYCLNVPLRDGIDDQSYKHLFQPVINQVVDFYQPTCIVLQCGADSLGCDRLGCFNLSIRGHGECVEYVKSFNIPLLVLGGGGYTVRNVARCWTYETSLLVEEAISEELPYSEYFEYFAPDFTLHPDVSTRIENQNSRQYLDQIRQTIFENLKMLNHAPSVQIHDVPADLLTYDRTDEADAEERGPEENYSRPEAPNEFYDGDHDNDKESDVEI

Structure (SMILES) | inhibition [1] [%] | inhibition [2] [%] | further results
COC(=O)c1coc(-c2ccccc2O)n1 | 30.1 | 39.1 | 
CC(/C=C/C(=O)NO)=C\[C@@H](C)C(=O)c1ccc(N(C)C)cc1 | 99.2 |  | 
O=C(NC(c1ccccc1)c1ccccc1)c1coc(-c2ccccc2O)n1 | 54.1 | 37.8 | IC50 [3, 8]: 7.5 µM; inhibition [4]: Dose-dependent effect; logP [5]: 3.91; inhibition [6]: Dose-dependent effect; Kd [7]: 0.203 µM
O=C(O)c1coc(-c2ccccc2O)n1 | 54.8 | 38.7 | 
O=C(NCc1ccc(-c2ccccc2)cc1)c1coc(-c2ccccc2O)n1 | 52.2 | 40.1 | IC50 [3, 8]: > 100 µM
O=C(NCC(c1ccccc1)c1ccccc1)c1coc(-c2ccccc2O)n1 | 34.8 | 23.7 | IC50 [3, 8]: 40 µM
O=C(Nc1ccc(-c2ccccc2)cc1)c1coc(-c2ccccc2O)n1 | 31.9 | 30.2 | IC50 ([3]; mv4-11): Not Active
O=C(NCCCCNC(=O)C(c1ccccc1)c1ccccc1)c1coc(-c2ccccc2O)n1 | 0 | 4 | 
O=C(NCCC(c1ccccc1)c1ccccc1)c1coc(-c2ccccc2O)n1 | 28.7 | 37.5 | IC50 ([3]; mv4-11): Not Active
O=C(Nc1ccccc1)c1coc(-c2ccccc2O)n1 | 29.5 | 22.5 | IC50 [3, 8]: 25 µM
O=C(O)c1ccc(CNC(=O)c2coc(-c3ccccc3O)n2)cc1 | 56.5 | 39.7 | 
O=C(NCCCCNC(=S)NCCC(c1ccccc1)c1ccccc1)c1coc(-c2ccccc2O)n1 | 1.3 | 3.7 | 
O=C(Nc1ccccc1)c1ccc(CNC(=O)c2coc(-c3ccccc3O)n2)cc1 | 41.3 | 15.8 | 
O=C(NCc1cccc2ccccc12)c1coc(-c2ccccc2O)n1 | 45.2 | 32.3 | 
O=C(NCCc1c[nH]c2ccccc12)c1coc(-c2ccccc2O)n1 | 36 | 18.9 | 
O=C(CNC(=O)c1coc(-c2ccccc2O)n1)Nc1ccccc1 | 32 | 36.9 | 
O=C(NO)C(c1ccccc1)c1ccccc1 |  | 76.4 | 
O=C(NCCCCNCCC(c1ccccc1)c1ccccc1)c1coc(-c2ccccc2O)n1 | 19.7 | 18.1 | 
O=C(NCCCCN1C(=O)c2ccccc2C1=O)c1coc(-c2ccccc2O)n1 | 25.4 | 11 | 
